Data: patent US6884776B1, “Antimicrobial peptides derived from ubiquicidine” (priority 1997, dated 2005)
Where no end group is shown, it is not given here.

Experiments:
[1] = localization of 99mTc-labelled peptides with γ-camera in mice infected with Staphylococcus aureus or with sterile inflammations; type: in vivo; details: target to non-target ratios, FIG. 13
Experimental: Mice were infected intramuscularly with about 10^6 Staphylococcus aureus bacteria (ATCC 25923) and subsequently injected intraperitoneally with 25 μg ^99mTc-peptide. Mice were also injected intramuscularly with about 1×10^8 heat-killed (1 hour, 100° C.)S. aureus, 1 μg endotoxin or 100 ng phorbol myristate acetate (PMA) in order to cause sterile inflammations. At different points in time after injection of the peptide the radioactivity was measured in the circulation (heart), determined organs (liver, kidney, bladder and spleen) and in both thigh muscles using a γ-camera.
(§1) Mice were infected in the right thigh muscle with Klebsiella pneumoniae and 25 μg ^99mTc-labelled ubiquicidine (1-18) or ubiquicidine (18-35) was subsequently injected intraperitoneally. At different points in time after injection of the peptide the amount of activity in the right (test) and left (control) thigh muscle of the mouse was measured using a γ-camera. The results are shown in FIG. 12 as a ratio of the values in the right thigh muscle and the left thigh muscle, i.e. “target to non-target ratio”. For the purpose of comparison the results for human defensin and IgG are also shown. The target to non-target ratios for infections and sterile inflammations were also compared (FIG. 13).

[2] = design: species or system mice; details: mouse, in vivo
Experimental: Reference is made to FIG. 11 for a schematic view of the experimental infection and treatment of the mice. In summary, mice-were infected intramuscularly in the right thigh muscle with about 10^6 bacteria and after 5 minutes injected intraperitoneally with about 25 μg (labelled) peptide. At different points in time after injection of the peptide the animals were killed and the right thigh muscle was removed, homogenized, and finally the number of bacteria in the homogenate was determined using microbiological plate techniques, or accumulation of the labelled peptide was determined by means of a γ-camera. This test involved animals which were normal and immunocompromised (injection with cyclophosphamide, “total body” radiation).
as §1

[3] = in vivo; cited from earlier work
micro-organisms = test: growth-killing test / in vitro antimicrobial action (IC 99%); type: cell-based
Excerpt: Peptide fragments derived from ubiquicidine comprise a preferably continuous series of at least 3, preferably at least 8 amino acids from the amino acid sequence of ubiquicidine as shown in FIG. 1. For an average skilled person it is simple to ascertain whether a peptide fragment with a series of preferably continuous amino acids chosen from the amino acid sequence of ubiquicidine does actually have antimicrobial activity and thus meets the requirements of the invention. A simple standard test for determining antimicrobial activity is for instance the universally known growth-killing test, i.e. determining of the concentration of an antimicrobial agent which kills 99% of the micro-organisms (IC 99%). Designated by “peptide (fragments)” in this application are therefore all amino acid chains which are smaller than the ubiquicidine itself, but the amino acid sequence of which is to be found, preferably continuously, in the ubiquicidine. The length of such peptide (fragments) can vary from 3 to 58 amino acids, wherein possible extra amino acids added as modification are not included.
(§2) Different techniques were used to test for the antimicrobial activity of ubiquicidine and peptides derived therefrom.

Staphylococcus aureus = test: growth-killing curve determination, 60 minutes at 37° C., CFU; type: cell-based
Experimental: as §2
(§3) In the control incubations the bacteria multiplied a number of times (not shown).
(§4) Peptides were prepared using an Abimed AMS multiple peptide synthesizer and a fixed phase (tentagel AC, a polymer of polyethylene glycol spacer linked to a polystyrene matrix) (de Koster et al. (1995) J. Immunol. Methods 187:179-188). After completion of the synthesis the peptide was released from the fixed phase using a trifluoroacetic acid water(19:1) mixture and the peptides were subsequently precipitated with an ether pentane(1:1) mixture at […]. After centrifugation the obtained pep-tides were dried at 40° C. for 15 minutes. The peptides were subsequently dissolved in 10% acetic acid and concentrated by means of vacuum centrifugation. The purity of the peptides was determined using HPLC. The antimicrobial activity of these peptide fragments was determined as described in Example 1 under 2.3.

Klebsiella pneumoniae = test: as above; type: cell-based
Experimental: as §2, §3, §4

99mTc-labelled ubiquicidine 18-35: MAG3-derived ubiquicidine (18-35) labelled with the emitter 99mTc (hybrid molecule) (KVAKQEKKKKKTGRAKRR; also: MAG3 chelator conjugated, site not given here, 99mTc label; UniProt P62861 92-109, looked up, fragment)
accumulation in infection versus sterile inflammations [1]: in a nidus but not in inflammations
time to maximum accumulation compared with IgG [2]: much sooner than ^99Tc-IgG

[67Ga] [gallium 67]
time needed for accumulation [3]: at least 24 hours

KVAKQEKKKKKTGRAKRR [ubiquicidine (18-35)]
accumulation in the infected thigh muscle [2]: accumulate rapidly

KVHGSLARAGKVRGQTPK [ubiquicidine (1-18)]
accumulation in the infected thigh muscle [2]: accumulate rapidly

^99Tc-ubiquicidine (1-18): ubiquicidine (1-18) labelled with technetium 99m (KVHGSLARAGKVRGQTPK; also: labelled with 99mTc, site not given here; UniProt P62861 75-92, looked up, fragment)
time to maximum accumulation compared with IgG [2]: much sooner than ^99Tc-IgG

ubiquicidine (29-41): synthetic peptide fragment of ubiquicidine, amino acids 29-41, sequence in FIG. 1 (TGRAKRRMQYNRR; Small ribosomal subunit protein eS30; UniProt P62861 103-115, looked up, fragment)
IC 99% (concentration which kills 99% of the micro-organisms) (micro-organisms): around 1 μM
antimicrobial activity of peptide fragments (Staphylococcus aureus): demonstrated antimicrobial activity
antimicrobial activity of peptide fragments (Klebsiella pneumoniae): demonstrated antimicrobial activity
